Legend:
[1] = Particle size and polydispersity index (PDI) by dynamic light scattering; assay type: physicochemical; conditions: luciferase mRNA lipid nanoparticles prepared from the compound; 25°C
Description: (§1) Luciferase mRNA was diluted in a 10-100 mM sodium citrate buffer solution at pH 4.0, with the concentration of the mRNA solution being 135 µg/ml. A mixed lipid ethanol solution was prepared at a molar ratio of ionizable cationic lipid compound (each exemplary compound) : DSPC: cholesterol : 2-[(polyethylene glycol)-2000]-N,N-ditetradecylacetamide (ALC-0159) of 50:10:38.5:1.5. The mRNA solution and the mixed lipid solution were mixed at a volume ratio of 3:1 in a nanodrug preparation device, followed by ultrafiltration to obtain luciferase mRNA lipid nanoparticles.
(§2) • 1. Determination of particle size and polydispersity index (PDI): The average particle size and PDI of the nanoparticle sample solutions in the examples were determined by dynamic light scattering using Malvern ZetaSizer Nano ZS90. The measurement angle was 90°, the refractive index of the dispersant was 1.330, and the test temperature was 25°C. • 2. Zeta potential: The Zeta potential of the nanoparticle sample solutions in the examples was determined by electrophoretic light scattering (ELS) using Malvern ZetaSizer Nano ZS90. Refractive index of the dispersant: 1.330, Test temperature: 25°C. • 3. Encapsulation Rate: The Encapsulation Rate of luciferase mRNA in lipid nanoparticles was determined using a Quant-it Ribogreen RNA quantitation kit (ThermoFisher Scientific, UK) in accordance with the manufacturer's instructions.

[2] = Zeta potential by electrophoretic light scattering; assay type: physicochemical; conditions: luciferase mRNA lipid nanoparticles prepared from the compound; 25°C
Description: as §1, §2

[3] = Encapsulation Rate of luciferase mRNA in lipid nanoparticles (Quant-it Ribogreen RNA kit); assay type: physicochemical; conditions: luciferase mRNA in lipid nanoparticles prepared from the compound
Description: as §1, §2

HEK 293T cells = assay: In vitro transfection efficiency of luciferase mRNA lipid nanoparticles (luciferase activity); assay type: cell-based; conditions: 100 ng dose, 96-well plate, 24 h incubation; luciferase mRNA lipid nanoparticles
Description: as §1
HEK-293T cells were used to evaluate the in vitro transfection efficiency of lipid nanoparticle compositions prepared from each exemplary compound. HEK293T cells were routinely cultured in DMEM + 10% FBS medium to ensure the cells were in the logarithmic growth phase. One day before transfection, the cells were seeded into a 96-well culture plate at an appropriate cell density and grown overnight. At the time of transfection, the cell confluency needed to reach 70-90%. The lipid nanoparticle compositions prepared from each exemplary compound were diluted into 4 different dose concentrations with DMEM and added to the 96-well cell culture plate, resulting in final concentrations of 400 ng, 200 ng, 100 ng and 50 ng per well, respectively. luciferase plasmid transfected using Lipofectamine 2000 was used as the positive control (PC). After incubation for 24 h in a 5% CO2 incubator at 37°C, the substrate was added to the wells, and the luciferase activity was determined using a microplate reader. […] The luciferase activity of the luciferase mRNA lipid nanoparticles prepared from Compound 1005 in HEK293T cells is shown in Fig. 1.

female Balb/c mice = assay: In vivo transfection efficiency and safety of luciferase mRNA lipid nanoparticles (whole-body live imaging); conditions: tail vein injection, single dose 0.3 mpk, 6 h after administration
Description: as §1
6-8 week-old female Balb/c mice were used to evaluate the in vivo transfection efficiency and safety of lipid nanoparticle compositions prepared from each exemplary compound. The lipid nanoparticles prepared from each exemplary compound were administered by tail vein injection at a single dose of 0.3 mpk. At specific time points after administration (e.g., 3 h, 6 h), live imaging of the animals was performed using a PerkinElmer small animal imaging system to determine the bioluminescent signal. The whole-body live imaging of mice at 3 h/6 h after intravenous administration of luciferase mRNA lipid nanoparticles prepared from Compound 1008 is shown in Fig. 2. […] Table 3 Summary of in vitro/in vivo Activity Evaluation of Lipid Nanoparticles Prepared from Compounds

Row | Particle Size [1] [nm] | Polydispersity Index (PDI) [1] | Zeta Potential [2] [mV] | Encapsulation Rate [3] [%] | Structure (SMILES) | HEK 293T Cell Luciferase Activity (HEK 293T cells) | Mouse Whole-Body Average Fluorescence Signal (female Balb/c mice)
1 | 74.13 | 0.064 | -7.8 | 91.1 | CCCCCCCCCC(CCCCCCCC)C(=O)OCC(COC(=O)C(CCCCCCCC)CCCCCCCCC)(COC(=O)C(CCCCCCCC)CCCCCCCCC)NCCC(=O)NCCN(C)CCn1cnc2c(N)ncnc21 (stereo not drawn) [Compound 1139] | 4.23×10^5 RLU | 3.87×10^5 p/s/cm^2/sr
2 | 83.84 | 0.046 | -17.8 | 96.6 | CCCCCCCCCC(CCCCCCCC)C(=O)OCC(COC(=O)C(CCCCCCCC)CCCCCCCCC)(COC(=O)C(CCCCCCCC)CCCCCCCCC)NCCCCN(C)CCCCO (stereo not drawn) [Compound 3428] | 3.23×10^5 RLU | 2.04×10^5 p/s/cm^2/sr
3 | 85.4 | 0.111 | 3.06 | 70.3 | CCCCCCCCCCCCCCCC(CC)C(=O)OCC(COC(=O)C(CC)CCCCCCCCCCCCCCC)(COC(=O)C(CC)CCCCCCCCCCCCCCC)NCCC(=O)NCCN(CCO)CCO (racemic) [Compound 1014] | 2.86×10^6 RLU | 3.55×10^4 p/s/cm^2/sr
4 | 70.81 | 0.126 | 3.8 | 96.1 | CCCCCCCCCCCCCCCC(CC)C(=O)OCC(COC(=O)C(CC)CCCCCCCCCCCCCCC)(COC(=O)C(CC)CCCCCCCCCCCCCCC)NC(=O)CNCCN(C)CCCCO (stereo not drawn) [Compound 3427] | 5.18×10^5 RLU | 8.24×10^6 p/s/cm^2/sr
5 | 94.71 | 0.115 | -0.327 | 88.9 | CCCCCCCCCCCCCCCC(CC)C(=O)OCC(COC(=O)C(CC)CCCCCCCCCCCCCCC)(COC(=O)C(CC)CCCCCCCCCCCCCCC)NCCN(C)CCCCO (stereo not drawn) [Compound 3424] | 1.81×10^4 RLU | 9.34×10^4 p/s/cm^2/sr
6 | 82.37 | 0.021 | -21.2 | 89.4 | CCCCCCCCCC(CCCCCCCC)C(=O)OCC(COC(=O)C(CCCCCCCC)CCCCCCCCC)(COC(=O)C(CCCCCCCC)CCCCCCCCC)NCCN(C)CCCCO (racemic) [Compound 3425] | 6.86×10^6 RLU | 1.56×10^7 p/s/cm^2/sr
7 | 87.5 | 0.086 | -18.6 | 96.0 | CCCCCCCCCC(CCCCCCCC)C(=O)OCC(COC(=O)C(CCCCCCCC)CCCCCCCCC)(COC(=O)C(CCCCCCCC)CCCCCCCCC)NC(=O)CNCCN(C)CCCCO (stereo not drawn) [Compound 3423] | 3.97×10^5 RLU | 5.53×10^5 p/s/cm^2/sr
8 | 62.59 | 0.127 | -3.64 | 95.4 | CCCCCCCCCCCCCCCC(CC)C(=O)OCC(COC(=O)C(CC)CCCCCCCCCCCCCCC)(COC(=O)C(CC)CCCCCCCCCCCCCCC)NC(=O)CN (stereo not drawn) [Compound 1003] | – | –
9 | 77.74 | 0.072 | 2.84 | 64.5 | CCCCCCCCCCCCCCCC(CC)C(=O)OCC(COC(=O)C(CC)CCCCCCCCCCCCCCC)(COC(=O)C(CC)CCCCCCCCCCCCCCC)NCCC(=O)NCCN(C)CCO (stereo not drawn) [Compound 1025] | – | 4.20×10^5 p/s/cm^2/sr
